Reference: paper PMC4678576, “Optimisation of a triazolopyridine based histone demethylase inhibitor yields a potent and selective KDM2A (FBXL11) inhibitor” (MedChemComm, 2014)

Test: Parallel artificial membrane permeation assay (PAMPA)
Format: in vitro ADME
Settings: for Papp: PAMPA, range over pH 7.4, 6.2, 5.0, read-out: membrane permeability (PAMPA), range over the pH values tested

| Papp | PAMPA Pe pH 5.0 | PAMPA Pe pH 6.2 | PAMPA Pe pH 7.4 | Compound |
| --- | --- | --- | --- | --- |
| 45 to 56 ×10⁻⁶ cm/s | 56 10^−6 cm s^−1 | 45 10^−6 cm s^−1 | 52 10^−6 cm s^−1 | COC(=O)c1ccnc(-c2cn([C@@H]3CCCN(C(=O)c4ccccc4)C3)nn2)c1 [Compound 37] |
| 0.41 to 1.9 ×10⁻⁶ cm/s | 1.9 10^−6 cm s^−1 | 0.41 10^−6 cm s^−1 | 0.69 10^−6 cm s^−1 | O=C(O)c1ccnc(-c2cn([C@@H]3CCCN(C(=O)c4ccccc4)C3)nn2)c1 [Compound 35] |
